“And” between values parts separate entries of the source, which are not always exact repeats. Equal values may be shown once. “Also recorded” adds a separate entry of the source. Read-outs that look alike come from different tables or passages of the source.
Legend:
[1] = tested on: human pancreatic cancer cells MiaPaca-2, ASPC-1, PT45P1 and PT45P1/asTF+; set-up: method as in doi:10.14319/ijcto.32.19; details: cited from earlier work; for ranking of the cytotoxic activities: four human pancreatic cancer cell lines
[2] = tested on: NCI-60 cancer cell line panel; set-up: method as in PMID 15210154, PMID 15711178, PMID 16722634; details: mean, read-out: mean growth inhibitory concentration GI50; cited from earlier work
[3] = tested on: MDA-MB-231 xenografts in the lungs; test: breast cancer lung metastasis (colonization) model, MDA-MB-231 cells injected into the tail vein; format: in vivo, athymic nude mice; details: for Lung weight (breast tumor nodules): n=4, ± S.D., vehicle control 296.6 ± 18.8
Procedure: The effect of UBS109 administration on lung metastasis was examined in mice bearing MDA-MB-231 xenografts in the lungs. Animals were administered therapeutic regimens of UBS109 by i.p. once/day 5 days/week (M-F) for 5 weeks, in the following groups: control vehicle, UBS109 at 5 mg/kg in vehicle, and UBS109 15 mg/kg in vehicle (n = 4). […] The cancer cells were mainly found in the lungs and some other sites. […] Treatment with UBS109 15 mg/kg appears the most efficacious in inhibiting tumors (lung colonies) (Figures 2 and 3). […] Lung weight was used to assess the breast cancer colony load present in the lungs of each mouse, since it is difficult to accurately count all colonies outside and inside in each lung.
Female athymic nude mice (nu/nu, Harlan Sprague-Dawley strain; 5-6 weeks old) were housed in a pathogen-free facility. All procedures and protocols were approved by the Institutional Animal Care and Use Committee at Emory University. Mice were randomized into […]: normal group (no tumor cells injected), lung metastasis model group (vehicle control), and two UBS109-treated groups with different dosages, 5 and 15 mg/kg body weight, 4 mice in each group.
Athymic nude mice were housed in a pathogen-free facility and were intravenously injected into the tail vein with breast cancer MDA-MB-231 bone metastatic cells (10^6 cells/mouse) to result in lung metastasis (colonization). One week following injection, mice were randomized to receive either vehicle (0.5% carboxymethyl cellulose sodium [CMC] with 10% DMSO in sterile water) or drug (UBS109). The agents (vehicle, UBS109 at 5 or 15 mg/kg body weight) were administered intraperitoneally (i.p.) daily 5 days per week for 5 weeks (n = 4 mice/regimen). CMC was dissolved in distilled water and sterilized by autoclaving. Due to chemical instability, a stock solution of the drugs was made fresh each time, by weighing out 100 mg UBS109 and dissolving it in 1 mL of 100% DMSO by briefly heating before making the appropriate dilution. […] Body weights were measured once a week.

[4] = body weight / toxicity during treatment in the lung metastasis model; format: in vivo, athymic nude mice
Procedure: Athymic nude mice were housed in a pathogen-free facility and were intravenously injected into the tail vein with breast cancer MDA-MB-231 bone metastatic cells (10^6 cells/mouse) to result in lung metastasis (colonization). One week following injection, mice were randomized to receive either vehicle (0.5% carboxymethyl cellulose sodium [CMC] with 10% DMSO in sterile water) or drug (UBS109). The agents (vehicle, UBS109 at 5 or 15 mg/kg body weight) were administered intraperitoneally (i.p.) daily 5 days per week for 5 weeks (n = 4 mice/regimen). CMC was dissolved in distilled water and sterilized by autoclaving. Due to chemical instability, a stock solution of the drugs was made fresh each time, by weighing out 100 mg UBS109 and dissolving it in 1 mL of 100% DMSO by briefly heating before making the appropriate dilution. After UBS109 administration for 5 weeks, animals were sacrificed. The lungs containing breast cancer tumors were weighed and fixed in 10% neutralized formalin for 48 h. Paraffin embedded blocks were stained with hematoxylin and eosin (H&E). Body weights were measured once a week.

[5] = pharmacokinetic study, single i.p. dose, plasma by LC/MS/MS; format: in vivo, CD-1 mice; details: 15 mg/kg i.p.
Procedure: Pharmacokinetic analysis of the plasma concentration time curve for each animal was conducted using noncompartmental analysis with WinNonlin® Version 6.3.0 (Figure 5). […] This is approximately […] in the blood of mice and, given the molecular weight of UBS109 of 291.4, yields a blood concentration of approximately 1.5 μM.
A pharmacokinetic (PK) study was performed by Agilux Laboratories Inc./Charles River laboratories, Inc. (Worcester, MA, USA). Male CD-1 mice (Harlan Laboratories, Inc.) weighing 28 ± 1.6 grams were used for the PK study. Three mice were administered a single i.p. dose of UBS109 15 mg/kg in 10% DMSO and 90% PBS.
A blood sample (approximately 35–40 μL) was taken from each animal from the tail vein at 4 different time points after dosing: 0.25, 0.5, 2, and 8 h (n=3 mice/time point). Samples were collected into K2EDTA-coated Microvette tubes (Sarstedt) on wet ice (protected from light) and processed to plasma by centrifugation (3500 rpm at 5°C) within 1 hour of collection. All plasma samples were transferred into separate 96 well plates (matrix tubes) and stored at −80°C until analysis for the parent drug by Agilux Laboratories/Charles River laboratories, Inc. via LC/MS/MS.
The plasma samples (10 μL) were deproteinated with acetonitrile (80 μL) and analyzed by LC/MS/MS using an internal standard (carbutamide) spiking technique with an AB SCIEX 6500+ system equipped with a Waters Acuity BEH C18 UPLC column (2 × 50 mm, 1.7 μm) operating at 55°C with mobile phases A (95:5:0.1 H2O:CAN:FA) and B (50:50:0.1 CAN:MeOH:FA). The corresponding time courses were 1.40 and 2.10 min (%MPB 95; Flow 0.800 mL/min) followed by a 2.80 min Strong Needle Rinse (25:25:25:25:0.1 (v:v:v:v:v) MeOH:ACN:IPA:H2O:NH4OH). The verified research grade bioanalytical assay method to determine the plasma concentrations of UBS109 (RGA Level 1) employed an API 6500+ electrospray, positive ion MS/MS device. The mean, standard deviation, and %CV of plasma levels were determined using Microsoft® Office Excel 2007. Mean concentration data was plotted against time to create plasma concentration versus time profiles at each dosage (Table 2 and Figure 5).
Pharmacokinetic analysis of the plasma concentration time curve for each animal was conducted using noncompartmental analysis with WinNonlin® Version 6.3.0. Areas under the curve (AUC) were estimated using the linear trapezoidal rule. The first order rate constant (Lambda Z) associated with the terminal (log-linear) elimination phase was estimated using linear regression of at least three nonzero concentrations versus time points in the late phase of the log concentration versus time profile. The half-life (t.) was calculated as ln(2)/Lambda Z. Nominal times were used in all the data analyses.

[6] = tested on: MDA-MB-231 breast cancer cells; set-up: method as in PMID 24628271; details: at 1.25 μM, in vitro; cited from earlier work
[7] = set-up: method as in PMID 24628271, PMID 23933177, doi:10.14319/ijcto.32.19; details: cited from earlier work

NC1(c2ccc(-c3nc4ccn5c(=O)[nH]nc5c4cc3-c3ccccc3)cc2)CCC1 [Akt inhibitor]
ranking of the cytotoxic activities [1]: UBS109> EF24> HSP90 inhibitor> gemcitabine> Akt inhibitor> p38 MAPK inhibitor

O=C1/C(=C/c2ccccc2F)CNC/C1=C\c1ccccc1F [EF24, 3,5-bis(2-flurobenzylidene)piperidin-4-one]
GI50 [2]: 0.7 µM | ranking of the cytotoxic activities [1]: UBS109> EF24> HSP90 inhibitor> gemcitabine> Akt inhibitor> p38 MAPK inhibitor

CC(C)c1cc(-c2n[nH]c(=O)n2-c2ccc3c(ccn3C)c2)c(O)cc1O [HSP90 inhibitor]
ranking of the cytotoxic activities [1]: UBS109> EF24> HSP90 inhibitor> gemcitabine> Akt inhibitor> p38 MAPK inhibitor

CN1CC(=Cc2ccccn2)C(=O)C(=Cc2ccccn2)C1 [UBS109, 3,5-bis(2-pyridinylmethylidene)-1-methyl-4-piperidone]
effect on lung metastasis/colonization (tumor deposition in the lungs by weight) ([3]; 15 mg/kg i.p. once daily 5 days/week for 5 weeks): significantly reduced; also recorded: significantly inhibited; also recorded: inhibited lung metastases | Lung weight (breast tumor nodules) ([3]; UBS109 5 mg/kg i.p. once daily 5 days/week for 5 weeks): 285.9 ± 11.2 mg | Lung weight (breast tumor nodules) ([3]; UBS109 15 mg/kg i.p. once daily 5 days/week for 5 weeks, p<0.05 vs control): 226.6 ± 19.8 mg | toxicity judged from body weight ([4]; 5 or 15 mg/kg body weight i.p. once daily 5 days a week for 5 weeks): not toxic | body weight during treatment ([4]; 5 or 15 mg/kg i.p. once daily 5 days/week for 5 weeks, versus controls): did not lose weight; also recorded: remained the same as in the other groups | AUClast ([5]; individual mouse): 813 ng·h/mL and 116 ng·h/mL and 1061 ng·h/mL | Cmax ([5]; individual mouse): 398 ng/mL and 623 ng/mL and 835 ng/mL | Extrapolated (AUC) ([5]; individual mouse): 6.15% | Extrapolated (AUC) ([5]; mean (only mouse 2 reported)): 6.15% | T ½ ([5]; mean of mice (only mouse 2 reported)): 1.97 h | approximate concentration in the blood of mice ([5]; restated from Cmax): approximately 1.5 ng/ml | Cmax ([5]; male, CD-1, mouse, plasma, ip, 15 mg/kg, at 15 min post injection, read-out: maximal blood concentration (Cmax)): 432 ± 387 ng/mL | AUC(0-t) ([5]; male, CD-1, mouse, plasma, ip, 15 mg/kg, mean of 3 mice): 664 ng·h/mL | Cmax ([5]; male, CD-1, mouse, plasma, ip, 15 mg/kg, mean of 3 mice, read-out: Cmax): 619 ng/mL | Tmax ([5]; male, CD-1, mouse, plasma, ip, read-out: time of maximal blood concentration post injection (converted)): 0.25 h | AUC(0-inf) ([5]; male, CD-1, plasma, ip, individual mouse): 124 ng·h/mL | half-life ([5]; male, CD-1, plasma, ip, individual mouse, read-out: T ½ (converted)): 1.97 h | cell killing of MDA-MB-231 cells [6]: 100% | inhibition of all four pancreatic cancer cell lines ([1]; at 0.25 μM): 100% | ranking of the cytotoxic activities [1]: UBS109> EF24> HSP90 inhibitor> gemcitabine> Akt inhibitor> p38 MAPK inhibitor | water solubility relative to other MACs [7]: most water soluble among the MACs

N.N.[Cl][Pt][Cl] [cisplatin]
GI50 [2]: 9.5 µM

Nc1ccn([C@@H]2O[C@H](CO)[C@@H](O)C2(F)F)c(=O)n1 [gemcitabine]
ranking of the cytotoxic activities [1]: UBS109> EF24> HSP90 inhibitor> gemcitabine> Akt inhibitor> p38 MAPK inhibitor | maximal killing of pancreatic cancer cells ([1]; up to 20 μM used in the test): above 50%

diferuloylmethane [curcumin]
GI50 [2]: 7.3 µM

From publication PMC6281413, “Inhibition of breast cancer metastasis to the lungs with UBS109” (Oncotarget, 2018)
